Laboratory results taken from patent US6593310B1, “Treatment of osteoporosis” (Arthropharm Pty. Ltd., priority 2000, dated 2003).
Values belong to the molecule of their own block, whether it stands above or below them.

Experiments:
[1] = tested on: spinal fracture; details: post-menopausal women; cited from earlier work
[2] = tested on: bone; assay: treatment of mammals with polysulfated polysaccharides, effect on bone; assay type: in vivo

Molecule: NCCCC(O)(P(=O)(O)O)P(=O)(O)O [Fosamax, alendronate]
reduction of risk of spinal fracture [1]: ~50%

Molecule: calcium pentosan polysulfate
occurrence or spread of osteoporosis ([2]; low dosages producing blood levels of 0.01 to 100 micrograms per ml, low continuous or high pulsed therapy dose): reduces the occurrence or spread of osteoporosis

effect on bone (bone fragility) ([2]; high repeated dosages, mammals): causes bone fragility
Molecule: pentosan polysulfate
